Reference: patent publication US11446269B2, “Methods of reducing or preventing oxidation of small dense LDL or membrane polyunsaturated fatty acids” (Amarin Pharmaceuticals Ireland Limited, priority 2014, dated 2022)

Key:
human sdLDL [1] = assay: Copper-induced sdLDL oxidation, TBARS (Example 7); format: biochemical; settings: 1 hr; for effect on sdLDL oxidation: 10 μM, vs vehicle-treated controls
Method: (§1) An experiment to study the antioxidant effect of EPA in LDL and small dense […] performed. […] Fenofibrate, gemfibrozil, and niacin were purchased from Sigma-Aldrich. […] Vitamin E was also incubated with sample aliquots as a positive control.

unfractionated LDL [2] = assay: Copper-induced oxidation of unfractionated LDL, TBARS (Example 7); format: biochemical, human; settings: 10 μM, 1 hr, vs vehicle-treated controls
Method: as §1

[3] = X-ray diffraction of cholesterol domains in POPC/cholesterol model membranes, C/P 1.5:1 (Example 9); settings: drug-to-phospholipid mole ratio 1:30, C/P 1.5:1
Method: Multilamellar vesicles (MLVs) were prepared as binary mixtures that include palmitoyloleoylphosphatidylcholine (POPC) (1.0 mg total phospholipid per sample) and cholesterol at an elevated cholesterol-to-phospholipid (C/P) mole ratio of 1.5:1. […] Samples were shell-dried under nitrogen gas and placed under vacuum for 3 hours to remove residual solvent at room temperature. After desiccation, each sample was resuspended in saline buffer (0.5 mM HEPES, 154 mM NaCl, pH 7.3) to yield a final phospholipid concentration of 2.5 mg/mL. Lipid suspensions were then vortexed for 3 minutes at ambient temperature to form MLVs.
Briefly, a 100 μL aliquot of each MLV preparation (containing 250 μg MLV) was transferred to a Lucite® sedimentation cell fitted with an aluminum foil substrate designed to collect MLVs into a single membrane pellet upon centrifugation. Samples were then loaded into a Sorvall AH-629 swinging bucket rotor (DuPont Corp., Wilmington, Del.) and centrifuged at 35,000 g, 5° C., for 90 minutes.
After centrifugal orientation, sample supernatants were aspirated and aluminum foil substrates, each supporting a single membrane pellet, were removed from the sedimentation cells. Sample pellets were dried for 5-10 minutes at ambient conditions, mounted onto curved glass supports, and placed in hermetically-sealed, brass or glass containers (for immediate analysis or temporary storage, respectively). All x-ray diffraction experiments were conducted at 20° C., 74% relative humidity. The latter was established by exposing membrane samples to saturated solutions of […] (K2C4H4O6.½H2O) for at least 1 hour prior to experimental analysis.
Oriented membrane samples were aligned at grazing incidence with respect to a collimated, mono-chromatic CuKα x-ray beam (Kα1 and Kα2 unresolved; λ=1.54 Å) produced by a Rigaku Rotaflex RU-200, high-brilliance microfocus generator (Rigaku-MSC, The Woodlands, Tex.) as previously described (Mason et al., Biophys. J., vol. 55(4), pages 769-778 (1989)). The samples were initially subjected to x-ray diffraction analysis at least 12 hours after formation of the membrane pellets and retested for up to several days. Analytical x-rays were generated by electron bombardment of a rotating copper anode and are filtered through a thin nickel foil to provide monochromatic radiation (λ=1.54 Å). Collimation of the x-ray beam was achieved using a single Franks mirror. […]
The d-space for any given membrane multi bilayer is a measurement of the unit cell periodicity of the membrane lipid bilayer (e.g., the distance from the center of one lipid bilayer to the next including surface hydration), and is calculated from Bragg's Law, hλ=2d sin θ, where h is the diffraction order, λ is the wavelength of the x-ray radiation (1.54 Å), d is the membrane lipid bilayer unit cell periodicity, and θ is the Bragg angle equal to one-half the angle between the incident beam and scattered beam.
The presence of cholesterol domains in a given membrane sample results in the production of distinct Bragg (diffraction) peaks having singular periodicity values of 34 and 17 Å (typically referred to as first- and second-order cholesterol domain peaks). Under the specific temperature and relative humidity conditions established for these experiments, the second-order, 17 Å cholesterol domain peak was well-delineated from other, neighboring cholesterol and phospholipid diffraction peaks and was thus used to quantitate relative cholesterol domain peak intensity. […]

sdLDL = assay: Glucose-induced sdLDL oxidation, MDA/TBARS (Example 10); format: biochemical, human; settings: glucose 200 mg/dL; for effect on glucose-induced sdLDL oxidation: 10.0 μM
Method: Vitamin E (α-tocopherol) purchased from Sigma-Aldrich was prepared in ethanol at 1.0 mM (ε=3.06×10^4 M^−1 cm^−1 at 294 nm) prior to experimental use. Test compounds were further diluted in ethanol or aqueous buffer as needed. Phosphate Buffered Saline (PBS) purchased from Sigma-Aldrich was prepared in double distilled water at 10 mM (138 mM NaCl, 2.7 mM KCl, pH 7.4). […] Lipid oxidation was measured by the colorimetric detection of malondialdehyde (MDA), a marker of oxidative stress.

[4] = Glucose-induced membrane lipid peroxidation (LOOH, CHOD-iodide assay) in DLPC/cholesterol multilamellar vesicles (Example 4); format: biochemical; settings: glucose 200 mg/dL
Method: Vitamin E (α-tocopherol) was also purchased from Sigma-Aldrich and prepared in ethanol at 1.0 mM (ε=3.06×10^4 M^−1 cm^−1 at 294 nm) just prior to experimental use. […] All test compounds were further diluted in ethanol or aqueous buffer as needed. Glucose was prepared in saline buffer (0.5 mM HEPES, 154 mM NaCl, pH 7.3) at 11.0 mM (200 mg/dL). CHOD-iodide color reagent (stock) was prepared, with slight modification, as described by from El-Saadani et al. (J. […] Samples were shell-dried under nitrogen gas and placed under vacuum for 1 h to remove residual solvent. […] Lipid suspensions were then vortexed for 3 min at ambient temperature to form MLVs. All MLV samples were subjected to time-dependent autoxidation by incubating at 37° C. in an uncovered, shaking water bath. This method allows lipid peroxidation to occur gradually without requiring the use of exogenous initiators. Small aliquots (5-100 μL) of each sample were removed, immediately following MLV preparation (0 hour) and after exposing samples to oxidative conditions for 72 or 96 hour, and combined with 1.0 mL of activated CHOD-iodide color reagent. Aliquot volume was reduced with each successive time point to ensure that spectrophotometric readings were within the optimal adsorption range. Test samples were covered and incubated in darkness at room temperature for at least 4 hr. Sample absorbances were then measured against a CHOD blank at 365 nm using a Beckman DU-640 spectrophotometer. The CHOD colorimetric assay is based on the oxidation of iodide (I^−) by lipid hydroperoxide (LOOH) to form triiodide (I3^−), the quantity of which is directly proportional to the amount of LOOH present in the lipid sample. The molar absorptivity (c) of I3^− is 2.46×10^4 M^−1 cm^−1 at 365 nm. […] The concentration of glucose selected was consistent with previous experimental studies of hyperglycemia under controlled laboratory conditions or observed in well-defined animal models of Type II diabetes following a glucose challenge. […] Values in FIG. 1 are mean±S.D. (N=6). EPA inhibited the peroxidative effects of glucose by 88% and 86% at 72 and 96 hours, respectively, which was highly significant (p<0.001) as compared to glucose treatment alone. […] Overall ANOVA—0 hour data: p=0.6655, F=0.4185; 72 hour data: p<0.0001, F=428.72; 96 hour data: p<0.0001, F=322.01.

[5] = Small angle x-ray diffraction of glucose- and peroxidation-induced cholesterol domain formation (Example 4); settings: any time point (0, 72, 96 h), 1:30, glucose 200 mg/dL, vs control
Method: After centrifugal orientation, sample supernatants were aspirated and aluminum foil substrates, each supporting a single membrane pellet, were removed from the sedimentation cells. […] All x-ray diffraction experiments were conducted at 20° C., 74% relative humidity.
Oriented membrane samples were aligned at grazing incidence with respect to a collimated, mono-chromatic CuKα x-ray beam (Kα1 and Kα2 unresolved; λ=1.54 Å) produced by a Rigaku Rotaflex RU-200, high-brilliance microfocus generator (Rigaku-MSC, The Woodlands, Tex.) as previously described (Mason et al., Biophys. J., vol. 55(4), pages 769-778 (1989)).
Routines written in Origin 8.6 (OriginLab Corporation, Northampton, Mass.) were used to determine total peak area (associated with all diffraction peaks in a given pattern) against which the second-order cholesterol domain peak was normalized.

human sdLDL [6] = assay: Copper-induced sdLDL oxidation, TBARS after 2 hr (Example 6); format: biochemical
Method: Venous blood was collected from healthy volunteers into vacutainer tubes containing sodium EDTA. Plasma was separated by centrifugation at 3000 g for 25 min at 4° C. and adjusted to a density of 1.020 g/mL with KBr. Triglyceride-rich lipoproteins (TGRL) and LDL fractions were then isolated by sequential centrifugation at 70,000 rpm at 4° C. in a Beckman LE-80 ultracentrifuge using a Beckman 50.4Ti rotor (Beckman Coulter, Inc., Fullerton, Calif.). The TGRL fraction (with a relative density of <1.020) was aspirated from the top of the centrifugate and discarded, leaving an LDL-enriched infranate (with a relative density of 1.020 to 1.063). The plasma LDL fraction was further fractionated into LDL1, LDL2, LDL3, and LDL4 (sdLDL) subfractions with relative densities of 1.020 to 1.035, 1.035 to 1.050, 1.050 to 1.063, and 1.063 to 1.075, respectively. The sdLDL subfraction was retained for additional experimentation. Plasma and lipoprotein fractions were maintained at 4° C. and protected from excessive exposure to light. Prior to oxidation experiments, EDTA was removed from the lipoprotein fraction using PD-10 desalting columns (GE Healthcare, Piscataway N.J.). After equilibration of the column with phosphate buffered saline (PBS), 2.5 mL of the lipoprotein fraction was loaded on the column and the flow-through discarded. The lipoprotein was then eluted with 3 mL of PBS. The LDL fractions were further diluted with PBS to obtain a 100 μg/mL apoB100 concentration.
LDL and sdLDL subfractions (0.6 mL each) were incubated with either 10 μL vehicle (ethanol) or 10 μL drug stock solution for 30 min to 1 hr at 37° C. Oxidation was initiated by the addition of 10 μM CuSO4. After 2 hr, 100 μL aliquots were removed from each subfraction and combined with 1.0 mL thiobarbituric acid (0.5%), 10 μL trichloroacetic acid (5%), 10 μL BHT (5 mg/mL in methanol), and 10 μL EDTA (5 mM). […]. Sample TBARS concentrations were determined spectrophotometrically by measuring sample absorbances against a standard curve derived from the hydrolysis of 1,1,3,3-tetramethoxypropane.

unfractionated LDL [7] = assay: Copper-induced oxidation of unfractionated LDL, TBARS after 2 hr (Example 6); format: biochemical, human; settings: 1.0 μM to 10.0 μM (data not shown)
Method: Venous blood was collected from healthy volunteers into vacutainer tubes containing sodium EDTA. […] Plasma and lipoprotein fractions were maintained at 4° C. and protected from excessive exposure to light. Prior to oxidation experiments, EDTA was removed from the lipoprotein fraction using PD-10 desalting columns (GE Healthcare, Piscataway N.J.). After equilibration of the column with phosphate buffered saline (PBS), 2.5 mL of the lipoprotein fraction was loaded on the column and the flow-through discarded. The lipoprotein was then eluted with 3 mL of PBS. The LDL fractions were further diluted with PBS to obtain a 100 μg/mL apoB100 concentration.

CC(C)c1c(C(=O)Nc2ccccc2)c(-c2ccccc2)c(-c2ccc(F)cc2)n1CC[C@@H](O)C[C@@H](O)CC(=O)O [atorvastatin]
effect on sdLDL oxidation (human sdLDL [1]): did not have any significant antioxidant activity | inhibition of sdLDL oxidation (TBARS formation) (human sdLDL [1]; each agent at 10 μM, vs vehicle): 0.1±7% | effect on unfractionated LDL oxidation (unfractionated LDL [2]): did not have any significant antioxidant activity

Cc1ccc(C)c(OCCCC(C)(C)C(=O)O)c1 [Gemfibrozil, gemfibrozil]
effect on sdLDL oxidation (human sdLDL [1]): no significant effect | effect on unfractionated LDL oxidation (unfractionated LDL [2]): no significant effect | % change Vs control (cholesterol domain peak intensity) [3]: 10.9 ± 43.3% | effect on cholesterol domains [3]: no significant changes in cholesterol domain size | effect on glucose-induced sdLDL oxidation (sdLDL): did not inhibit

CC1(C)[C@@H](O[C@H]2O[C@H](C(=O)O)[C@@H](O)[C@H](O)[C@H]2O[C@@H]2O[C@H](C(=O)O)[C@@H](O)[C@H](O)[C@H]2O)CC[C@]2(C)[C@H]3C(=O)C=C4[C@@H]5C[C@@](C)(C(=O)O)CC[C@]5(C)CC[C@@]4(C)[C@]3(C)CC[C@@H]12 [Glyc, glycyrrhizin]
reduction in cholesterol domain peaks vs vehicle [3]: 54.9%

CC(C)c1c(C(=O)Nc2ccccc2O)c(-c2ccccc2)c(-c2ccc(F)cc2)n1CC[C@@H](O)C[C@@H](O)CC(=O)O [ATM, Atorvastatin ortho- (o-) hydroxy (active) metabolite]
antioxidant effect on glucose-induced LOOH formation ([4]; 1.0 μM, 96 hours): potent antioxidant effects

Cc1c(C)c2c(c(C)c1O)CC[C@@](C)(CCC[C@H](C)CCC[C@H](C)CCCC(C)C)O2 [vitamin E, α-tocopherol]
effect on LOOH formation / lipid peroxidation ([4]; 72- and 96-hour time points, 1:30 drug-to-phospholipid mole ratio): no significant effect | effect on cholesterol domain formation [5]: no significant effect | effect on sdLDL oxidation (human sdLDL [6]; 1.0 μM to 10.0 μM): did not inhibit sdLDL oxidation except at the highest concentration | reduction of TBARS levels (human sdLDL [6]; 10.0 μM, 10 μM CuSO4, vs vehicle): 26% | effect on LDL oxidation (unfractionated LDL [7]): did not inhibit LDL oxidation at any concentration | effect on sdLDL oxidation (human sdLDL [1]): no significant effect | effect on unfractionated LDL oxidation (unfractionated LDL [2]): no significant effect | effect on glucose-induced sdLDL oxidation (sdLDL): failed to inhibit sdLDL oxidation | increase in sdLDL oxidation (sdLDL; vs glucose-treated controls): 63%
